Source: article PMC9551036, “A selective and orally bioavailable VHL-recruiting PROTAC achieves SMARCA2 degradation in vivo” (Nature Communications, 2022)
Values joined by “and” are separate entries in the source; they are usually repeats but may differ in a detail not shown here. Equal entries are not always repeated.

Target: T1, SMARCA4^BD (Homo sapiens, UniProt P51532)
T1 construct: P51532, residues 1448–1569 with additional N-terminal SM residues; GST (TEV site) (N, cleaved yes); made in house; host or cells: Escherichia coli BL21(DE3); construct from SGC Toronto
T1 sequence (P51532 1448-1569): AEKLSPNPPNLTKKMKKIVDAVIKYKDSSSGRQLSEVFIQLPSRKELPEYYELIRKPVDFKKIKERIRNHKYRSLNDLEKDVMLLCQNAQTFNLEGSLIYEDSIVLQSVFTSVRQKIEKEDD
Experiment: SPR binding to immobilised SMARCA4 bromodomain
Procedure: SMARCA4^BD was provided by the Structural Genomics Consortium (SGC), Toronto[32] and SMARCA2^BD and PRM1^BD5 were synthesised by GeneArt then subcloned into pDEST15 vectors (Invitrogen). The VCB complex was expressed and purified as described previously, with the modification that 0.3 mM IPTG was used for induction of expression. […] Both were stored in 20 mM 4-(2-hydroxyethyl)−1-piperazineethanesulfonic acid (HEPES), 150 mM sodium chloride and 1 mM tris(2-carboxyethyl)phosphine (TCEP) pH 7.5. SMARCA2^BD, SMARCA4^BD and PBRM1^BD5 were expressed in Escherichia coli BL21(DE3) as N-terminal GST fusion proteins with a TEV protease cleavage site. Expression and purification of these proteins has been described previously[32],[33]. Starter cultures were grown overnight at 37 °C in 10 mL of Luria-Bertani (LB) medium with ampicillin (100 μg/mL). The starter cultures were diluted (1:100) in Terrific Broth (TB) medium with ampicillin (100 μg/mL) and grown in a shaking incubator at 37 °C to an optical density (OD600) ~1 before the temperature was lowered for induction (to 23 °C for SMARCA2^BD or 18 °C for SMARCA4^BD and PRRM1^BD5). […] Cells were harvested by centrifugation and stored at −80 °C prior to purification. Cells were resuspended in Lysis buffer and lysed by sonication (20 pulses of 5 s for 4 min) using a Sonopuls HD 3080 (Bandelin, Berlin, Germany) or by homogenisation using a Stansted Pressure Cell Homogeniser (Stansted Fluid Power). The Lysis buffers were as follows: for SMARCA2^BD: 50 mM HEPES, 500 mM sodium chloride, 5% glycerol, 5 mM dithiothreitol (DTT); for SMARCA4^BD: 25 mM HEPES, 0.3 M sodium chloride, 5% glycerol, 10 mM DTT, pH 7.5; for PBRM1^BD5: 25 mM HEPES, 300 mM sodium chloride, 5% glycerol, 10 mM DTT, pH 7.8; in each case supplemented with complete protease inhibitors (Roche). Affinity purification was performed using Glutathione Sepharose 4B (GE Healthcare) in batch mode or on-column. […] For SMARCA2^BD, prior to TEV protease cleavage the eluted GST-tagged BD was first dialysed into desalting buffer (20 mM HEPES, 250 mM sodium chloride, pH 7.0 + 0.5% glycerol). Where TEV cleavage was performed in solution, a second affinity (GST-trap) column purification step was carried out to remove the GST-tag and uncleaved GST-tagged protein. Proteins were further purified by SEC (HiLoad Superdex-75, 16/600) (GE Healthcare) and stored in Storage buffer (for SMARCA2^BD: 20 mM HEPES, 150 mM sodium chloride, pH 7.5; for SMARCA4^BD: 10 mM HEPES, 0.5 M NaCl, 5% glycerol, pH 7.5; for PBRM1^BD5: 20 mM HEPES, 300 mM NaCl, 5 mM DTT, pH 7.8). For AlphaScreen assays, eluted GST-tagged BDs were purified directly by SEC in the respective storage buffers without TEV cleavage. All chromatography purification steps were performed either at room temperature or 4 °C using an ÄKTA FPLC purification system (GE Healthcare) or a plastic Econo-Pac column (Bio-Rad).
SPR data were acquired on Biacore 8K or T200 instruments (Cytiva). Target proteins were immobilised at 25 °C on CM5 chips by amine coupling (EDC/NHS, Cytiva) in HBS-P+ running buffer (pH 7.4), containing 2 mM TCEP. After surface activation with EDC/NHS (contact time 420 s, flow rate 10 µl/min) SMARCA2^BD and SMARCA4^BD at 0.01–0.05 mg/ml in coupling buffer (10 mM Na-Acetate pH 6.5, 0.005% TWEEN 20 and 50 µM PFI-3[13]) were immobilised to a density of 100–5000 Response Units (RU). The reference surface was subsequently deactivated using 1 M ethanolamine. For VCB immobilisation, streptavidin (Sigma Aldrich, prepared at 1 mg/ml in 10 mM sodium acetate coupling buffer, pH 5.0) was immobilised by amine coupling to a density of 3000–5000 RU after which biotinylated VCB complex (0.125 mM in running buffer) was streptavidin-coupled to a density of 100–500 RU. Biotinylated VCB was prepared as previously described[27]: in brief, the complex was mixed 1:1 with EZ-Link NHS–PEG4–biotin (Thermo Scientific) and incubated at room temperature for 1 h.

Compound | Kd (SMARCA4BD, mean ± SD) | Kd (individual replicates)
Cc1ncsc1-c1ccc(CNC(=O)[C@@H]2C[C@@H](O)CN2C(=O)[C@@H](NC(=O)C2(F)CC2)C(C)(C)C)c(OCCN2CCC(c3ccc4c(c3)n(C3CCCC3)c3nc(=O)c5c(Br)cccc5n43)CC2)c1 [compound 20] | 182 ± 23 nM | 157 nM and 202 nM and 187 nM
O=c1nc2n(C3CCCC3)c3ccccc3n2c2cccc(Br)c12 [compound 1] | 1680 ± 317 nM | 1320 nM and 1830 nM and 1900 nM
CN1CCN(c2nc(=O)c3c(Br)cccc3o2)CC1 [compound 15] | 12000 ± 902 nM | 12900 nM and 11900 nM and 11100 nM
Cc1ncsc1-c1ccc([C@H](COC(C)CN2CCC(c3ccc4c(c3)n(C3CCCC3)c3nc(=O)c5c(Br)cccc5n43)CC2)NC(=O)[C@@H]2C[C@@H](O)CN2C(=O)[C@@H](NC(=O)C2(F)CC2)C(C)(C)C)cc1 (stereo partly drawn) [compound 9] | 505 ± 184 nM | 361 nM and 443 nM and 712 nM
Cc1ncsc1-c1ccc([C@H](CC[C@@H](C)CCN2CCC(c3ccc4c(c3)n(C3CCCC3)c3nc(=O)c5c(Br)cccc5n43)CC2)NC(=O)[C@@H]2C[C@@H](O)CN2C(=O)[C@@H](NC(=O)C2(F)CC2)C(C)(C)C)cc1 [compound 29] | 397 ± 49 nM | 347 nM and 400 nM
Cc1ncsc1-c1ccc([C@H](CCC(C)(C)CCN2CCC(c3ccc4c(c3)n(C3CCCC3)c3nc(=O)c5c(Br)cccc5n43)CC2)NC(=O)[C@@H]2C[C@@H](O)CN2C(=O)[C@@H](NC(=O)C2(F)CC2)C(C)(C)C)cc1 [compound 30] | 579 ± 89 nM | 492 nM and 575 nM and 669 nM
Cc1ncsc1-c1ccc([C@H](CCCCN2CCC(c3ccc4c(c3)n(C3CCCC3)c3nc(=O)c5c(Br)cccc5n43)CC2)NC(=O)[C@@H]2C[C@@H](O)CN2C(=O)[C@@H](NC(=O)C2(F)CC2)C(C)(C)C)cc1 [compound 25] | 153 ± 10 nM | 142 nM and 157 nM and 161 nM
Cc1ncsc1-c1ccc([C@H](COCCN2CCC(c3ccc4c(c3)n(C3CCCC3)c3nc(=O)c5c(Br)cccc5n43)CC2)NC(=O)[C@@H]2C[C@@H](O)CN2C(=O)[C@@H](NC(=O)C2(N(C)C)CC2)C(C)(C)C)cc1 [compound 26] | 210 ± 17 nM | 202 nM and 199 nM and 229 nM
CN1CCN(c2nc(=O)c3c(Cl)cccc3o2)CC1 [compound 13] | 35600 ± 346 nM | 31600 nM and 37500 nM and 37700 nM
CN1CCC(c2ccc3c(c2)n(C2CCCC2)c2nc(=O)c4c(Br)cccc4n32)CC1 [compound 3] | 58 ± 10 nM | 110 nM and 97.7 nM and 113 nM and 69.4 nM and 51 nM and 52.7 nM
Cc1ncsc1-c1ccc([C@H](COC(C)(C)CN2CCC(c3ccc4c(c3)n(C3CCCC3)c3nc(=O)c5c(Br)cccc5n43)CC2)NC(=O)[C@@H]2C[C@@H](O)CN2C(=O)[C@@H](NC(=O)C2(F)CC2)C(C)(C)C)cc1 [compound 28] | 278 ± 14 nM | 267 nM and 293 nM and 274 nM
CN1CCN(c2nc(=O)c3ccccc3o2)CC1 [compound 14] |  | > 200000 nM and 140000 nM
Cc1ncsc1-c1ccc(CNC(=O)[C@@H]2C[C@@H](O)CN2C(=O)[C@@H](NC(=O)C2(F)CC2)C(C)(C)C)c(OCCOCCOCCN2CCC(c3ccc4c(c3)n(C3CCCC3)c3nc(=O)c5c(Br)cccc5n43)CC2)c1 [compound 21] | 863 ± 179 nM | 868 nM and 1040 nM and 682 nM
CN1CCN(c2nc(=O)c3c(I)cccc3o2)CC1 [compound 16] | 22100 ± 1230 nM | 23100 nM and 20700 nM and 22400 nM
Cc1ncsc1-c1ccc([C@H](CCCCCN2CCC(c3ccc4c(c3)n(C3CCCC3)c3nc(=O)c5c(Br)cccc5n43)CC2)NC(=O)[C@@H]2C[C@@H](O)CN2C(=O)[C@@H](NC(=O)C2(F)CC2)C(C)(C)C)cc1 [compound 11] | 297 ± 147 nM | 201 nM and 223 nM and 466 nM
Cc1ncsc1-c1ccc([C@H](CC[C@H](C)CCN2CCC(c3ccc4c(c3)n(C3CCCC3)c3nc(=O)c5c(Br)cccc5n43)CC2)NC(=O)[C@@H]2C[C@H](O)CN2C(=O)[C@@H](NC(=O)C2(F)CC2)C(C)(C)C)cc1 [compound 12] | 362 ± 52 nM | 306 nM and 408 nM and 370 nM
Cc1ncsc1-c1ccc([C@H](COC(C)CN2CCC(c3ccc4c(c3)n(C3CCCC3)c3nc(=O)c5c(Br)cccc5n43)CC2)NC(=O)[C@@H]2C[C@@H](O)CN2C(=O)[C@@H](NC(=O)C2(N(C)C)CC2)C(C)(C)C)cc1 (stereo partly drawn) [compound 10] | 381 ± 28 nM | 359 nM and 413 nM and 372 nM
Nc1cccc2c1c(=O)nc1n(C3CCCC3)c3ccccc3n21 [compound 2] | 2750 ± 455 nM | 2.74 µM and 2.3 µM and 3.21 µM and > 2 µM (2×)
Cc1ncsc1-c1ccc(CNC(=O)[C@@H]2C[C@H](O)CN2C(=O)[C@@H](NC(=O)C2(F)CC2)C(C)(C)C)c(OCCN2CCC(c3ccc4c(c3)n(C3CCCC3)c3nc(=O)c5c(Br)cccc5n43)CC2)c1 [compound 19] | 138 ± 43 nM | 98.2 nM and 132 nM and 183 nM
Cc1ncsc1-c1ccc(C(CCC(C)CCN2CCC(c3ccc4c(c3)n(C3CCCC3)c3nc(=O)c5c(Br)cccc5n43)CC2)NC(=O)C2CC(O)CN2C(=O)C(NC(=O)C2(F)CC2)C(C)(C)C)cc1 (stereo not drawn) [ACBI2] | 314 ± 76 nM | 236 nM and 318 nM and 388 nM
Cc1ncsc1-c1ccc(CNC(=O)[C@@H]2C[C@@H](O)CN2C(=O)[C@@H](NC(=O)C2(F)CC2)C(C)(C)C)c(OCCOCCOCCOCCN2CCC(c3ccc4c(c3)n(C3CCCC3)c3nc(=O)c5c(Br)cccc5n43)CC2)c1 [compound 22] | 1430 ± 339 nM | 1040 nM and 1650 nM and 1600 nM
Cc1ncsc1-c1ccc(CNC(=O)[C@@H]2C[C@@H](O)CN2C(=O)[C@@H](NC(=O)C2(F)CC2)C(C)(C)C)c(OCCCCN2CCC(c3ccc4c(c3)n(C3CCCC3)c3nc(=O)c5c(Br)cccc5n43)CC2)c1 [compound 23] | 169 ± 76 nM | 117 nM and 133 nM and 256 nM
Cc1ncsc1-c1ccc([C@H](COCCCN2CCC(c3ccc4c(c3)n(C3CCCC3)c3nc(=O)c5c(Br)cccc5n43)CC2)NC(=O)[C@@H]2C[C@@H](O)CN2C(=O)[C@@H](NC(=O)C2(F)CC2)C(C)(C)C)cc1 [compound 27] | 388 ± 96 nM | 308 nM and 361 nM and 494 nM
